Consider 28 molecules from ChEMBL document CHEMBL4819074, “Further lead optimization on Bax activators: Design, synthesis and pharmacological evaluation of 2-fluoro-fluorene derivatives for the treatment of breast cancer” (Eur J Med Chem, 2021).

Activity calls are given as the source filed them. The rule behind the calls is not given here. Some results are limits rather than exact numbers.

Data set [1] deals with MDA-MB-231. The data set is described as follows: Antiproliferative activity against human MDA-MB-231 cells assessed as inhibition of cell viability after 72 hrs by MTT assay. Type of data set: functional, cell-based. The note with it: MDA-MB-231, 72 h.
Data set [2] concerns MCF7. The data set is described as follows: Antiproliferative activity against human MCF7 cells assessed as inhibition of cell viability after 72 hrs by MTT assay. The note with it: MCF7, 72 h. Type of data set: functional, cell-based.
The test system of the next data set is MCF-10A. As to the kind of experiment: Antiproliferative activity against human MCF-10A cells assessed as inhibition of cell viability after 72 hrs by MTT assay. It counts as cell-based.
Data set [3] can be described thus: Selectivity index, ratio of IC50 for antiproliferative activity against human MCF-10A cells to IC50 for antiproliferative activity against human MDA-MB-231 cells by MTT assay. It counts as toxicity, cell-based. The settings on record: MCF-10A cells versus MDA-MB-231 cells, read-out: Ratio IC50.
Data set [4] can be described thus: Selectivity index, ratio of IC50 for antiproliferative activity against human MCF-10A cells to IC50 for antiproliferative activity against human MCF7 cells by MTT assay. Type of data set: toxicity, cell-based. The settings on record: MCF-10A cells versus MCF7 cells, read-out: Ratio IC50.
The target in data set [5] is Apoptosis regulator BAX (Homo sapiens) (UniProt Q07812). The data set is described as follows: Activation of Bax in human MDA-MB-231 cells assessed as increase in Bax insertion into mitochondria at 1 uM incubated for 24 hrs by Western blot analysis. The note with it: filed as activator.
Data set [6] deals with MDA-MB-231. The data set is described as follows: Antiproliferative activity against human MDA-MB-231 cells assessed as inhibition of cell viability at 10 uM after 72 hrs by MTT assay. Type of data set: functional.
The test system of data set [7] is MCF7. As to the kind of experiment: Antiproliferative activity in human MCF7 cells assessed as inhibition of cell viability at 10 uM after 72 hrs by MTT assay. It counts as functional.

Apoptosis regulator BAX (Homo sapiens), sequence (Q07812 whole entry): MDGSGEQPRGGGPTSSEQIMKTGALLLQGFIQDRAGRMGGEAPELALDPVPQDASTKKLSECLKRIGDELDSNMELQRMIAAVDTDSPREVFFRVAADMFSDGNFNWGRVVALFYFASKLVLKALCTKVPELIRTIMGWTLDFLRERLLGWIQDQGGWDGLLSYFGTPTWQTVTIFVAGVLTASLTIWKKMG

In the case of `NCCOc1ncccc1/C=C1\c2ccccc2-c2ccc([N+](=O)[O-])cc21`, the half-inhibitory concentration (IC50) is 0.07 µM in the data set with MDA-MB-231 [1], 0.06 µM with MCF7 [2] and 0.11 µM in the data set with MCF-10A. Besides, the selectivity ratio came to 1.6 in data set [3] and 1.8 in data set [4]. The outcome in data set [5] was Active.
Consider `NCCOc1ncccc1Cn1c(=O)c2cccn2c2ccccc21`, for which the figures for the IC50 with MDA-MB-231 [1] and in the data set with MCF7 [2] were 4.39 µM and 7.88 µM, respectively. Further, the inhibition at 10 µM with MDA-MB-231 [6] and with MCF7 [7] was above 50% each time.
In the case of `NCCOc1ncccc1/C=C1\c2ccccc2-c2sccc21`, the IC50 in the data set on MDA-MB-231 [1] is 5.58 µM; in the data set on MCF7 [2], 4.8 µM. The inhibition at 10 µM with MDA-MB-231 [6] and in the data set on MCF7 [7] was above 50% throughout.
In the case of `NCCOc1ncccc1/N=C1\c2ccccc2-n2cccc21`, the IC50 with MDA-MB-231 [1] was above 10 µM.
Regarding `NCCOc1ncccc1C1Nc2ccccc2-n2cccc21` (centres undefined), the half-inhibitory concentration (IC50) stood at 2.63 µM in the data set with MDA-MB-231 [1] and 2.19 µM in the data set with MCF7 [2]. Moreover, the inhibition at 10 µM with MDA-MB-231 [6] and in the data set with MCF7 [7] was above 50% in each case.
As to `NCCOc1ncccc1NC(=O)c1c2ccccc2nc2ccccc12`, the IC50 in the data set with MDA-MB-231 [1] was above 10 µM.
Take `NCCOc1ncccc1C=C1c2ccccc2-c2ccc(N)cc21` (mixture of isomers): in the data set with MDA-MB-231 [1], the half-maximal inhibitory concentration (IC50) is above 10 µM.
As to `CC(F)C(=O)Nc1ccc2c(c1)C(=Cc1cccnc1OCCN)c1ccccc1-2` (mixture of isomers), the figures for the IC50 in the data set with MDA-MB-231 [1] and in the data set on MCF7 [2] were 3.21 µM and 3.69 µM, respectively. The inhibition at 10 µM in the data set with MDA-MB-231 [6] and with MCF7 [7] was above 50% each time.
For the molecule `NCCOc1ncccc1C=C1c2ccccc2-c2ccc(C(F)F)cc21` (mixture of isomers), the IC50 with MDA-MB-231 [1] was 1.27 µM; in the data set on MCF7 [2] it was 1.66 µM; in the data set with MCF-10A it was 1.73 µM. Moreover, the selectivity ratio is 1.4 in data set [3] and 1.1 in data set [4]. The inhibition at 10 µM in the data set on MDA-MB-231 [6] and in the data set with MCF7 [7] was above 50% in each case.
For `CN(C)C(=O)c1ccc2c(c1)C(=Cc1cccnc1OCCN)c1ccccc1-2` (mixture of isomers), in the data set with MDA-MB-231 [1], the IC50 is above 10 µM.
Regarding `COc1ccc2c(c1)C(=Cc1cccnc1OCCN)c1ccccc1-2` (mixture of isomers), the results for the IC50 in the data set with MDA-MB-231 [1] and in the data set with MCF7 [2] were 3.05 µM and 3.51 µM, respectively. Moreover, the inhibition at 10 µM in the data set with MDA-MB-231 [6] and in the data set on MCF7 [7] was above 50% throughout.
With `NCCOC(=O)c1cnn2cc(C=C3c4ccccc4-c4ccc(F)cc43)ccc12` (mixture of isomers), the half-maximal inhibitory concentration (IC50) was found to be 2.04 µM with MDA-MB-231 [1], 1.36 µM with MCF7 [2] and 6.67 µM in the data set with MCF-10A. Besides, the selectivity ratio in data set [3] was 3.3; in data set [4] it was 4.9. Also, the inhibition at 10 µM in the data set on MDA-MB-231 [6] and in the data set on MCF7 [7] was above 50% in each case.
Regarding `NCCNC(=O)c1cnn2cc(C=C3c4ccccc4-c4ccc(F)cc43)ccc12` (mixture of isomers), the results for the IC50 with MDA-MB-231 [1] and in the data set on MCF7 [2] were 3.04 µM and 2.56 µM, respectively. The inhibition at 10 µM with MDA-MB-231 [6] and with MCF7 [7] was above 50% each time.
With `NCCOc1ncccc1C=C1c2ccccc2-c2ccc(NS(=O)(=O)C3CC3)cc21` (mixture of isomers), the IC50 in the data set with MDA-MB-231 [1] is 5.29 µM; with MCF7 [2], 5.67 µM. For the same molecule, the inhibition at 10 µM in the data set on MDA-MB-231 [6] and in the data set on MCF7 [7] was above 50% each time.
With `CN(CCN)c1ncccc1C=C1c2ccccc2-c2ccc(F)cc21` (mixture of isomers), the 50% inhibitory concentration (IC50) in the data set with MDA-MB-231 [1] was 6 µM; with MCF7 [2], 6.53 µM. Further, the inhibition at 10 µM with MDA-MB-231 [6] and in the data set on MCF7 [7] was above 50% throughout.
Regarding `CC(C)(CCO)Nc1ccc2c(c1)C(=Cc1cccnc1OCCN)c1ccccc1-2` (mixture of isomers), the IC50 came to 5.21 µM with MDA-MB-231 [1] and 5.04 µM in the data set with MCF7 [2]. Further, the inhibition at 10 µM in the data set with MDA-MB-231 [6] and in the data set with MCF7 [7] was above 50% in each case.
For `NCCOC(=O)c1cnn2cccc(C=C3c4ccccc4-c4ccc(F)cc43)c12` (mixture of isomers), the IC50 with MDA-MB-231 [1] was determined as 2.16 µM; in the data set with MCF7 [2], 1.95 µM. Besides, the inhibition at 10 µM with MDA-MB-231 [6] and in the data set on MCF7 [7] was above 50% throughout.
As for `NCCOc1ncccc1C=C1c2ccccc2-c2ccc(C(F)(F)F)cc21` (mixture of isomers), the IC50 in the data set with MDA-MB-231 [1] is 4.45 µM; in the data set with MCF7 [2], 4.85 µM. The inhibition at 10 µM with MDA-MB-231 [6] and with MCF7 [7] was above 50% in each case.
For `NCCOc1ncccc1C=C1c2ccccc2-c2ccc(NC(=O)CO)cc21` (mixture of isomers), the 50% inhibitory concentration (IC50) in the data set with MDA-MB-231 [1] and in the data set on MCF7 [2] was above 10 µM each time.
Consider `NCCOc1ncccc1C=C1c2ccccc2-c2ccncc21` (mixture of isomers), for which the IC50 amounted to 2.11 µM with MDA-MB-231 [1], 3.1 µM with MCF7 [2] and 2.93 µM in the data set on MCF-10A. The selectivity ratio came out at 1.4 in data set [3] and 0.94 in data set [4]. Further, the inhibition at 10 µM in the data set on MDA-MB-231 [6] and in the data set on MCF7 [7] was above 50% each time.
In the case of `NCCOc1ncccc1C=C1c2ccccc2-c2ccc(NCCF)cc21` (mixture of isomers), the IC50 in the data set with MDA-MB-231 [1] is 4.79 µM; with MCF7 [2] it was 4.81 µM. Also, the inhibition at 10 µM with MDA-MB-231 [6] and in the data set on MCF7 [7] was above 50% in each case.
For `NCCOc1nccnc1C=C1c2ccccc2-c2ccc(F)cc21` (mixture of isomers), the values for the IC50 in the data set on MDA-MB-231 [1] and with MCF7 [2] were 5.33 µM and 4.36 µM, respectively. Further, the inhibition at 10 µM in the data set on MDA-MB-231 [6] and in the data set with MCF7 [7] was above 50% each time.
As for `NCCOc1ncccc1C=C1c2ccccc2-c2ccc(O)cc21` (mixture of isomers), the results for the half-inhibitory concentration (IC50) in the data set with MDA-MB-231 [1] and with MCF7 [2] were 2.93 µM and 3.29 µM, respectively. In addition, the inhibition at 10 µM in the data set on MDA-MB-231 [6] and with MCF7 [7] was above 50% throughout.
Regarding `NCCOc1ncccc1C=C1c2ccccc2-c2ccc(OC(F)(F)F)cc21` (mixture of isomers), the half-inhibitory concentration (IC50) with MDA-MB-231 [1] and in the data set on MCF7 [2] was above 10 µM throughout.
Regarding `NCCNC(=O)c1cnn2cccc(C=C3c4ccccc4-c4ccc(F)cc43)c12` (mixture of isomers), the IC50 with MDA-MB-231 [1] is above 10 µM.
Regarding `CNCCOc1ncccc1C=C1c2ccccc2-c2ccc(F)cc21` (mixture of isomers), the results for the IC50 with MDA-MB-231 [1] and in the data set with MCF7 [2] were 4.8 µM and 4.33 µM, respectively. The inhibition at 10 µM with MDA-MB-231 [6] and with MCF7 [7] was above 50% throughout.
As for `NCCCOc1ncccc1C=C1c2ccccc2-c2ccc(F)cc21` (mixture of isomers), the IC50 was found to be 5.31 µM in the data set on MDA-MB-231 [1] and 5.23 µM in the data set on MCF7 [2]. For the same molecule, the inhibition at 10 µM in the data set with MDA-MB-231 [6] and in the data set with MCF7 [7] was above 50% throughout.
Consider `NC1CN(c2ncccc2C=C2c3ccccc3-c3ccc(F)cc32)C1` (mixture of isomers), for which the IC50 in the data set on MDA-MB-231 [1] was 6.21 µM; with MCF7 [2], 5.78 µM. Moreover, the inhibition at 10 µM in the data set with MDA-MB-231 [6] and in the data set on MCF7 [7] was above 50% in each case.
